Assay results from PubChem BioAssay (NCI).
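GI50 marks 50% less growth. The concentration for full growth arrest is given as TGI.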

Experiments:
Assay in all cases: NCI tumour cell line growth inhibition, 384-well format
SF-268 CNS = system: SF-268 CNS
RPMI-8226 leukemia = system: RPMI-8226 leukemia
MOLT-4 leukemia = system: MOLT-4 leukemia
HCT-15 colon = system: HCT-15 colon
HS 578T breast = system: HS 578T breast
DU-145 prostate = system: DU-145 prostate
COLO 205 colon = system: COLO 205 colon
MDA-MB-468 breast = system: MDA-MB-468 breast
OVCAR-3 ovarian = system: OVCAR-3 ovarian
SW-620 colon = system: SW-620 colon
NCI-H522 lung = system: NCI-H522 lung
U251 glioblastoma = system: U251 glioblastoma
HCC-2998 colon = system: HCC-2998 colon
ACHN renal = system: ACHN renal
NCI/ADR-RES ovarian = system: NCI/ADR-RES ovarian
UACC-257 melanoma = system: UACC-257 melanoma
HOP-92 NSCLC = system: HOP-92 NSCLC
TK-10 renal = system: TK-10 renal
786-0 renal = system: 786-0 renal
PC-3 prostate = system: PC-3 prostate
NCI-H23 lung = system: NCI-H23 lung
CAKI-1 renal = system: CAKI-1 renal
SNB-75 CNS = system: SNB-75 CNS
RXF 393 renal = system: RXF 393 renal
IGROV1 ovarian = system: IGROV1 ovarian
MCF7 breast = system: MCF7 breast
UACC-62 melanoma = system: UACC-62 melanoma

With `COc1cc(OC)cc(N2CCN(C(=O)Nc3nc4cc(F)ccc4nc3OC)CC2)c1` the GI50 (SF-268 CNS) was 30.4 nM, the TGI (SF-268 CNS) was 415 nM and the GI50 (RPMI-8226 leukemia) was 17 nM. For the same compound, the TGI (RPMI-8226 leukemia) was 31.8 nM, the GI50 (MOLT-4 leukemia) was 18.2 nM and the TGI (MOLT-4 leukemia) was 32.8 nM. The GI50 (HCT-15 colon) was 22.4 nM, the TGI (HCT-15 colon) was 1180 nM and the GI50 (HS 578T breast) was 17 nM. It also gave a TGI (HS 578T breast) of 35.6 nM, a GI50 (DU-145 prostate) of 34.7 nM and a TGI (DU-145 prostate) of 249 nM. It also gave a GI50 (COLO 205 colon) of 27.7 nM, a TGI (COLO 205 colon) of 84.8 nM and a GI50 (MDA-MB-468 breast) of 16.1 nM. The TGI (MDA-MB-468 breast) was 32.1 nM, the GI50 (OVCAR-3 ovarian) was 12.1 nM and the TGI (OVCAR-3 ovarian) was 31.4 nM. For the same compound, the GI50 (SW-620 colon) was 36.5 nM, the TGI (SW-620 colon) was 18800 nM and the GI50 (NCI-H522 lung) was under 10 nM. For the same compound, the TGI (NCI-H522 lung) was 22 nM, the GI50 (U251 glioblastoma) was 32.7 nM and the TGI (U251 glioblastoma) was 12100 nM. It also gave a GI50 (HCC-2998 colon) of 20.7 nM, a TGI (HCC-2998 colon) of 76.9 nM and a GI50 (ACHN renal) of 65.7 nM. It also gave a TGI (ACHN renal) of 20200 nM, a GI50 (NCI/ADR-RES ovarian) of 14 nM and a TGI (NCI/ADR-RES ovarian) of 32.1 nM. It also gave a GI50 (UACC-257 melanoma) of 37.2 nM, a TGI (UACC-257 melanoma) of 20100 nM and a GI50 (HOP-92 NSCLC) of 48.3 nM. It also gave a TGI (HOP-92 NSCLC) of 15600 nM, a GI50 (TK-10 renal) of 57.1 nM and a TGI (TK-10 renal) of 23100 nM. It also gave a GI50 (786-0 renal) of 28.4 nM, a TGI (786-0 renal) of 267 nM and a GI50 (PC-3 prostate) of 25.4 nM. For the same compound, the TGI (PC-3 prostate) was 15200 nM, the GI50 (NCI-H23 lung) was 20.7 nM and the TGI (NCI-H23 lung) was 55.4 nM. It also gave a GI50 (CAKI-1 renal) of 15.8 nM, a TGI (CAKI-1 renal) of 15100 nM and a GI50 (SNB-75 CNS) of 23.4 nM. It also gave a TGI (SNB-75 CNS) of 127 nM, a GI50 (RXF 393 renal) of under 10 nM and a TGI (RXF 393 renal) of 21.9 nM. It also gave a GI50 (IGROV1 ovarian) of 42.5 nM, a TGI (IGROV1 ovarian) of 15000 nM and a GI50 (MCF7 breast) of 26.2 nM. For the same compound, the TGI (MCF7 breast) was 5570 nM, the GI50 (UACC-62 melanoma) was under 10 nM and the TGI (UACC-62 melanoma) was 15000 nM.
